# Where a name gives a salt, the structure may show the parent alone.
# Target: T1, 5-HT3 (Homo sapiens, UniProt P46098)
# T1 sequence (P46098 24-478): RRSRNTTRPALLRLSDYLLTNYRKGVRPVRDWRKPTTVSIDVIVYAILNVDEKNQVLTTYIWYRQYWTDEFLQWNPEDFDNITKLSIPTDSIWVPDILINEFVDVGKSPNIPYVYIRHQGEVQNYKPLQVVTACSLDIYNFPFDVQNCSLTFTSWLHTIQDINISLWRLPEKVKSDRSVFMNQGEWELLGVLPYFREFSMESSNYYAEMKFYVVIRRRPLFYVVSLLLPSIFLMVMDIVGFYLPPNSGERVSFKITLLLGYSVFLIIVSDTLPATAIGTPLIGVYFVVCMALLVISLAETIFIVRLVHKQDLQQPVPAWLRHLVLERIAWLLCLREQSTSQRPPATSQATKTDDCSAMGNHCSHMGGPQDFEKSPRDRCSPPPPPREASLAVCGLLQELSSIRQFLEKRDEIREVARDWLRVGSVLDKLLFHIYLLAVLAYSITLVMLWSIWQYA
# Test: Compound affinity for the human 5-HT3 receptor (Assay B), SPA radioligand binding with [9-methyl-3H]BRL-43694
# Parameters: purchased Perkin Elmer
# Conditions: Assay B (method B unless otherwise annotated); read-out: 5-HT3 Ki
# Outline: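 Ten competitor concentrations in duplicate; specific binding (total minus nonspecific) fitted for IC50, converted to Ki by Cheng-Prusoff.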
row,SMILES,Ki [nM]
1,"C[C@H]1CN(Cc2ccccc2)C[C@H](C)N1c1nc2c(C(=O)NC3CC4CCCC(C3)N4C)cccc2o1 (stereo partly drawn) [Example 148, Endo-N-(9-methyl-9-azabicyclo[3.3.1]nonan-3-yl)-2-((2S,6S)-4-benzyl-2,6-dimethylpiperazin-1-yl)benzoxazole-4-carboxamide Hydrochloride]",1.6
2,"CN1[C@@H]2CCC[C@H]1C[C@@H](NC(=O)c1cccc3oc(N)nc13)C2 [Example 35, Endo-N-(9-Methyl-9-azabicyclo[3.3.1]non-3-yl)-2-aminobenzoxazole-4-carboxamide Hydrochloride]",9.1
3,"CC1CN(c2nc3c(C(=O)N[C@H]4C[C@H]5CCC[C@@H](C4)N5C)cccc3o2)CCN1 (stereo partly drawn) [Example 95, Endo-N-(9-Methyl-9-azabicyclo[3.3.1]nonan-3-yl)-2-(3-methylpiperazin-1-yl)benzoxazole-4-carboxamide Hydrochloride]",52.4
4,"CC(=O)N1C[C@H](C)N(c2nc3c(C(=O)NC4CC5CCCC(C4)N5C)cccc3o2)[C@@H](C)C1 (stereo partly drawn) [Example 110, Endo-N-(9-Methyl-9-azabicyclo[3.3.1]nonan-3-yl)-2-((2S,6S)-4-acetyl-2,6-dimethylpiperazin-1-yl)benzoxazole-4-carboxamide Hydrochloride]",2.2
5,"CN1[C@@H]2CCC[C@H]1C[C@@H](NC(=O)c1cccc3oc(N4CCn5ccnc5C4)nc13)C2 [Example 79, Endo-N-(9-Methyl-9-azabicyclo[3.3.1]nonan-3-yl)-2-(5,6-dihydroimidazo[1,2-a]pyrazin-7(8H)-yl)benzoxazole-4-carboxamide Hydrochloride]",29.3
6,"COc1ccccc1Nc1nc2c(C(=O)N[C@H]3C[C@H]4CCC[C@@H](C3)N4C)cccc2o1 [Example 64, Endo-N-(9-methyl-9-azabicyclo[3.3.1]nonan-3-yl)-2-(2-methoxyphenylamino)benzoxazole-4-carboxamide Hydrochloride]",16.2
7,"CN1C2CCCC1CC(NC(=O)c1cccc3oc(N4CCNC[C@@H]4C(C)(C)C)nc13)C2 (stereo partly drawn) [Example 96, Endo-N-(9-Methyl-9-azabicyclo[3.3.1]nonan-3-yl)-2-((S)-2-tert-butylpiperazin-1-yl)benzoxazole-4-carboxamide Hydrochloride]",7.5
8,"CCNc1nc2c(C(=O)NC3CN4CCC3CC4)cccc2o1 [Example 104, (S)—N-(Quinulidin-8-yl)-2-ethylaminobenzoxazole-4-carboxamide Hydrochloride]",13.5
9,"CCNc1nc2c(C(=O)N[C@H]3C[C@H]4CCC[C@@H](C3)N4C)cccc2o1 [Example 105, Hydrochloride]",3.3
10,"C[C@H]1CN(C(=O)N(C)C)C[C@H](C)N1c1nc2c(C(=O)NC3CC4CCCC(C3)N4C)cccc2o1 (stereo partly drawn) [Example 136, Endo-N-(9-methyl-9-azabicyclo[3.3.1]nonan-3-yl)-2-((2S,6S)-2,6-dimethyl-4-(dimethylcarbamoyl)piperazin-1-yl)benzoxazole-4-carboxamide Hydrochloride]",2.6
11,"CN1[C@@H]2CCC[C@H]1C[C@@H](NC(=O)c1cccc3oc(NC4CNC4)nc13)C2 [Example 16, Endo-N-(9-Methyl-9-azabicyclo[3.3.1]non-3-yl)-2-(azetidin-3-ylamino)benzoxazole-4-carboxamide Dihydrochloride]",179
12,"CN1[C@@H]2CCC[C@H]1C[C@@H](NC(=O)c1cccc3oc(N4CCn5c(nnc5C(F)(F)F)C4)nc13)C2 [Example 54, Endo-N-(9-Methyl-9-azabicyclo[3.3.1]nonan-3-yl)-2-(3-(trifluoromethyl)-5,6-dihydro-[1,2,4]triazolo[4,3-a]pyrazin-7(8H)-yl)benzoxazole-4-carboxamide Hydrochloride]",118
13,"CN1[C@@H]2CCC[C@H]1C[C@@H](NC(=O)c1cccc3oc(N4CCNCC45CCCC5)nc13)C2 [Example 100, Endo-N-(9-Methyl-9-azabicyclo[3.3.1]nonan-3-yl)-2-(6,9-diazaspiro[4.5]decan-6-yl)benzoxazole-4-carboxamide Hydrochloride]",11.4
14,"C[C@@H]1CN(c2nc3c(C(=O)NC4CC5CCCC(C4)N5C)cccc3o2)[C@@H](C)CN1 (relative stereo) [Example 60, Endo N-(9-Methyl-9-azabicyclo[3.3.1]nonan-3-yl)-2-((2S*,5R*)-2,5-dimethylpiperazin-1-yl)benzoxazole-4-carboxamide Hydrochloride]",10.5
15,"CC1CN(C(=O)N2CCCC2)CC(C)N1c1nc2c(C(=O)NC3CC4CCCC(C3)N4)cccc2o1 [Example 146, Endo-N-(9-azabicyclo[3.3.1]nonan-3-yl)-2-((2S,6S)-2,6-dimethyl-4-(pyrrolidine-1-carbonyl)piperazin-1-yl)benzoxazole-4-carboxamide hydrochloride]",32.2
16,"C[C@H]1CNCCN1c1nc2c(C(=O)N[C@H]3C[C@H]4CCC[C@@H](C3)N4C)cccc2o1 [Example 41a, Endo-N-(9-Methyl-9-azabicyclo[3.3.1]nonan-3-yl)-2-[(S)-2-methylpiperazin-1-yl]benzoxazole-4-carboxamide Hydrochloride]",14.2

row,SMILES,Ki [nM]
1,"CC[C@H]1CNCCN1c1nc2c(C(=O)NC3CC4CCCC(C3)N4C)cccc2o1 (stereo partly drawn) [Example 84, Endo-N-(9-Methyl-9-azabicyclo[3.3.1]nonan-3-yl)-2-((S)-2-ethylpiperazine-1-yl)benzoxazole-4-carboxamide Hydrochloride]",11.3
2,"C[C@@H]1CNC[C@@H](C)N1c1nc2c(C(=O)NC3CC4CCCC(C3)N4C)cccc2o1 (stereo partly drawn) [Example 69, Endo-N-(9-Methyl-9-azabicyclo[3.3.1]nonan-3-yl)-2-((2R,6R)-2,6-dimethylpiperazin-1-yl)benzoxazole-4-carboxamide Hydrochloride]",32.7
3,"C[C@H]1CN(CC2CC2)C[C@H](C)N1c1nc2c(C(=O)NC3CC4CCCC(C3)N4C)cccc2o1 (stereo partly drawn) [Example 119, Endo-N-(9-methyl-9-azabicyclo[3.3.1]nonan-3-yl)-2-((2S,6S)-4-(cyclopropylmethyl)-2,6-dimethylpiperazin-1-yl)benzoxazole-4-carboxamide Hydrochloride]",6.6
4,"CN1C2CCCC1CC(NC(=O)c1cc(Cl)cc3oc(N4CCOC[C@@H]4C(C)(C)C)nc13)C2 (stereo partly drawn) [Example 80, Endo N-(9-Methyl-9-azabicyclo[3.3.1]nonan-3-yl)-2-((S)-3-tert-butylmorpholino)-6-chloro-benzoxazole-4-carboxamide Hydrochloride]",29.4
5,"CN1CCN(c2nc3c(C(=O)NC4CN5CCC4CC5)cccc3o2)C(c2ccccc2)C1 (racemic) [Example 24, (S)—N-(quinuclidine-8-yl)-2-(4-methyl-2-phenylpiperazin-1-yl)benzoxazole-4-carboxamide Dihydrochloride]",103
6,"CN1[C@@H]2CCC[C@H]1C[C@@H](NC(=O)c1cccc3oc(NC4CCCCC4)nc13)C2 [Example 70, Endo-N-(9-Methyl-9-azabicyclo[3.3.1]nonan-3-yl)-2-(cyclohexylamino)benzoxazole-4-carboxamide Hydrochloride]",19.2
7,"C[C@H]1CNC[C@H](C)N1c1nc2c(C(=O)NC3CC4CCCC(C3)N4C)ccc(F)c2o1 (stereo partly drawn) [Example 107, Endo-N-(9-Methyl-9-azabicyclo[3.3.1]nonan-3-yl)-2-((2S,6S)-2,6-dimethylpiperazine-1-yl)-7-fluorobenzoxazole-4-carboxamide hydrochloride]",14.2
8,"CCN(CC)c1nc2c(C(=O)N[C@@H]3CN4CCC3CC4)cccc2o1 [Example 115, (S)—N-(quinuclidine-8-yl)-2-diethylaminobenzoxazole-4-carboxamide Hydrochloride]",4.8
9,"CC1CNCCN1c1nc2c(C(=O)NC3CN4CCC3CC4)cccc2o1 [Example 26, (S)—N-(quinuclidine-8-yl)-2-(2-methylpiperazin-1-yl)benzoxazole-4-carboxamide Dihydrochloride]",241
10,"CN1[C@@H]2COC[C@H]1C[C@@H](NC(=O)c1cccc3oc(Nc4ccccc4)nc13)C2 [Example 45, Endo-N-(9-Methyl-3-oxa-9-azabicyclo[3.3.1]nonan-7-yl)-2-(phenylamino)benzoxazole-4-carboxamide Hydrochloride]",22.6
11,"C[C@H]1COC[C@H](C)N1c1nc2c(C(=O)NC3CC4CCCC(C3)N4)cccc2o1 (stereo partly drawn) [Example 81, Endo-N-(9-Azabicyclo[3.3.1]nonan-3-yl)-2-((3S,5S)-3,5-dimethylmorpholino)benzoxazole-4-carboxamide Hydrochloride]",16.8
12,"O=C(N[C@@H]1CN2CCC1CC2)c1cccc2oc(N3CCCCC3)nc12 [Example 4, (S)—N-(quinuclidine-8-yl)-2-(piperidin-1-yl)benzoxazole-4-carboxamide hydrochloride]",34.2
13,"C[C@H]1CNCCN1c1nc2c(C(=O)NC3CC4CCCC(C3)N4C)cc(Cl)cc2o1 (stereo partly drawn) [Example 57, Endo-N-(9-methyl-9-azabicyclo[3.3.1]nonan-3-yl)-6-chloro-2-((S)-2-methylpiperazin-1-yl)benzoxazole-4-carboxamide Hydrochloride]",11.4
14,"CC(C)C[C@H]1CNCCN1c1nc2c(C(=O)NC3CC4CCCC(C3)N4C)cccc2o1 (stereo partly drawn) [Example 77, Endo-N-(9-Methyl-9-azabicyclo[3.3.1]nonan-3-yl)-2-((S)-2-isobutylpiperazine-1-yl)benzoxazole-4-carboxamide Hydrochloride]",6.4
15,"O=C(N[C@@H]1CN2CCC1CC2)c1cccc2oc(Nc3ccncc3)nc12 [Example 28, (S)—N-(quinuclidine-8-yl)-2-(pyridin-4-ylamino)benzoxazole-4-carboxamide Dihydrochloride]",5.3
